Laboratory results reported in US8734580B2, “Carbonyl propyl sulfuryl anthrapyridone sulfonic acid compounds and their preparation methods and applications” (Dalian University of Technology, priority 2011, dated 2014).

Tests used:
Format in all cases: physicochemical
[1] = Evaluation of long-term stability of the dye in aqueous solvent system; design: key: ∘: No precipitation; Δ: Slight precipitation; x: Notable precipitation; conditions: 20 parts dye, 70 parts water, 10 parts ethylene glycol; 50° C. for 7d, then 0° C. for 7d; filtered, precipitation graded
Procedure: (E) Evaluation of Long-Term Stability of the Dye in Aqueous Solvent System
Heat and dissolve the system of 20 parts of dyes, 70 parts of water and 10 parts of ethylene glycol; after the solution cools down, store it airtight at a constant temperature of 50° C. for 7d; cool it down and store it at 0° C. for 7d; filter the solution and evaluate it in 3 grades based on the following benchmark: […]

[2] = Evaluation of the dye solubility in water; conditions: grade by g/100 g water
Text: (D) Evaluation of the Dye Solubility in Water (g/100 g Water)
Solubility of the dye in water >30 ∘
Solubility of the dye in water >15-20 Δ
Solubility of the dye in water <15 x

[3] = Xenon lamp light-resistance test of the printed images; conditions: ink with 6 parts dye, ink-jet printed on glossy photo paper; xenon lamp 0.36 W/m^2, 50 h, 60% RH, 24° C.; grade by color difference ΔE
Procedure: (§1) The mixture product M1, M2 or M3 and the pure compound obtained by separation according to the embodiments 1-3 are used as the magenta colorant, and the ink composition is prepared according to the formula shown in following table 1, and the magenta aqueous ink composition is obtained by filtering with a 0.45 μm membrane filter, wherein triethanolamine is added to adjust the pH value of the ink composition to 8-10, and deionized water is added to make the total amount reach 100 parts-by-weight (PBW).
(§2) Use an ink-jet printer (Epson 270 manufactured by Epson Company), glossy photo paper (Epson) and the above described ink compositions for ink-jet printing.
(1) Xenon Lamp Light-Resistance Test of the Printed Images
Irradiate the printed glossy photo paper manufactured by Canon and Epson with Xenon-lamp Weathering Test Chamber ZG-P (manufactured by China Surui Company) at 60% RH and 24° C. with illuminance of 0.36 W/m^2 for 50 h to test the color difference (ΔE) before and after the test. The color difference (ΔE) is calculated from the differences of values of L*, a*, b* before and after the test in the above described color measurement system (Unterlab) by the followings formula: ΔE=((difference of L*)^2+(difference of a*)^2+(difference of b*)^2)^1/2.
Three grades will be divided for the evaluation based on the following benchmark: […]

[4] = Moisture resistance of the printed images; design: key: ∘: No bleeding; Δ: Slight bleeding; x: Notable bleeding; conditions: printed images at 50° C. and 90% RH for 168 h; bleeding judged by bare eyes
Procedure: as §1, §2
(3) Moisture Resistance of the Printed Images
Place the printed images in the Constant Temperature and Humidity Chamber (manufactured by China Surui Company) at 50° C. and 90% RH for 168 h; judge the bleeding of the ink by bare eyes before and after the test and evaluate it in 3 grades based on the following benchmark: […]

[5] = Ozone gas resistance of the printed images; conditions: ink with 6 parts dye, printed on glossy photo paper; 40 ppm ozone, 60% RH, 24° C.; grade by color difference ΔE
Procedure: Use an ink-jet printer (Epson 270 manufactured by Epson Company), glossy photo paper (Epson) and the above described ink compositions for ink-jet printing. (2) Ozone Gas Resistance of the Printed Images Place the printed images in the Ozone Weathering Test Chamber (manufactured by China Surui Company) at 60% RH, 24° C. and 40 ppm ozone. Calculated the color difference (ΔE) before and after the test by the same method as described in (1) above and evaluate it in 3 grades based on the following benchmark: ΔE<10 ∘ ΔE<20 Δ ΔE>20 x

SMILES	Long-term stability of the dye in aqueous solvent system [1]	Solubility of dye in water [2]	Ultraviolet resistance of ink printed images [3]	Water resistance of ink printed images [4]	Ozone resistance of ink printed images [5]
O=S(=O)([O-])c1cc(Nc2nc(Nc3ccc(/C=C/c4ccc(Nc5nc(Nc6cc(S(=O)(=O)[O-])cc7cc(S(=O)(=O)[O-])c(N=Nc8ccccc8)c(O)c67)nc(N6CCOCC6)n5)cc4S(=O)(=O)[O-])c(S(=O)(=O)[O-])c3)nc(N3CCOCC3)n2)c2c(O)c(N=Nc3ccccc3)c(S(=O)(=O)[O-])cc2c1.[Na+].[Na+].[Na+].[Na+].[Na+].[Na+] [C.I. direct red 227, reference compound]	Δ	x (Solubility of the dye in water <15)	x (ΔE>20)	Δ	x (ΔE>20)
O=C(O)CCCS(=O)(=O)c1cc(S(=O)(=O)O)c(Nc2cc(S(=O)(=O)O)c3[nH]c(=O)c(C(=O)c4cccc(S(=O)(=O)O)c4)c4c3c2C(=O)c2ccccc2-4)c(S(=O)(=O)O)c1 [Dp2]	∘	∘ (Solubility of the dye in water >30)	∘ (ΔE<10)	∘	∘ (ΔE<10)
O=C(CCCS(=O)(=O)c1cc(S(=O)(=O)O)c(Nc2cc(S(=O)(=O)O)c3[nH]c(=O)c(C(=O)c4cccc(S(=O)(=O)O)c4)c4c3c2C(=O)c2ccccc2-4)c(S(=O)(=O)O)c1)c1cccc(S(=O)(=O)O)c1 [Dp4]	∘	∘ (Solubility of the dye in water >30)	∘ (ΔE<10)	∘	∘ (ΔE<10)

Results, then the compound that gave them:

Long-term stability of the dye in aqueous solvent system [1]	Solubility of dye in water [2]	Ultraviolet resistance of ink printed images [3]	Water resistance of ink printed images [4]	Ozone resistance of ink printed images [5]	SMILES
∘	∘ (Solubility of the dye in water >30)	∘ (ΔE<10)	∘	∘ (ΔE<10)	O=C(c1cccc(S(=O)(=O)O)c1)c1c2c3c(c(Nc4c(S(=O)(=O)O)cc(S(=O)(=O)CCC5C(=O)c6ccccc6C5=O)cc4S(=O)(=O)O)cc(S(=O)(=O)O)c3[nH]c1=O)C(=O)c1ccccc1-2 [Dp8]
∘	∘ (Solubility of the dye in water >30)	∘ (ΔE<10)	∘	∘ (ΔE<10)	O=C(c1cccc(S(=O)(=O)O)c1)c1c2c3c(c(Nc4c(S(=O)(=O)O)cc(S(=O)(=O)CCC5C(=O)c6ccc(S(=O)(=O)O)cc6C5=O)cc4S(=O)(=O)O)cc(S(=O)(=O)O)c3[nH]c1=O)C(=O)c1ccccc1-2 (stereo not shown) [Dp10]
